Laboratory results as given in patent US9056876B2, “Substituted 1H-pyrazolo[3′,4′,4,5]thieno[2,3-b]pyridin-3-amine analogs as positive allosteric modulators of the muscarinic acetylcholine receptor M4” (VANDERBILT UNIVERSITY, priority 2011, dated 2015).

Target: T1, mAChR M4 (UniProt P08173)
T1 construct: hM1 and hM4 cDNAs were purchased from Missouri S&T cDNA Resource
T1 sequence (P08173 1-479): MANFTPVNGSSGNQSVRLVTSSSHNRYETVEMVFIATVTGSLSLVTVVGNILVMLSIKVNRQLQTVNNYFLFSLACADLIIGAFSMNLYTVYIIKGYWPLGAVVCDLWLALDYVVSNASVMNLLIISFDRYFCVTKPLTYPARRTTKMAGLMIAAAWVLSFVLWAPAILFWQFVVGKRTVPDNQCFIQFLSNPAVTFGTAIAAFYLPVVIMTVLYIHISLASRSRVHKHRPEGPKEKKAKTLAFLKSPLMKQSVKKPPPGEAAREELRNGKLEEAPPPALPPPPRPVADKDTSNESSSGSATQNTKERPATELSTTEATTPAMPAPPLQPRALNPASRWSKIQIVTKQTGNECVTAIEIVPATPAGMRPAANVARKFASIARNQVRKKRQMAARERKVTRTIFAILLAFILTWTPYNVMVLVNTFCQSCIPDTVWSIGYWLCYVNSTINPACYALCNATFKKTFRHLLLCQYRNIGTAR
Assay: mAChR M4 cell-based functional assay (calcium mobilization, Fluo-4, FDSS)
Details: for pEC50: positive allosteric modulator activity, EC20 acetylcholine response; for pEC50 / EC50: CHO-K1 cells; for EC50: positive allosteric modulator activity: concentration-dependent increase in the EC20 acetylcholine response, >10 μM estimated for low potency (no plateau); for Emax (%)*: % ACh maximum at 30 μM
Excerpt: Chinese hamster ovary (CHO-K1) cells stably expressing rat (r)M1 were purchased from the American Type Culture Collection and cultured according to their indicated protocol. CHO cells stably expressing human (h)M2, hM3, and hM5 were described previously (Levey A I, et al., (1991) J Neurosci 11:3218-3226.); hM1 and hM4 cDNAs were purchased from Missouri S&T cDNA Resource; rM4 cDNA was provided by T. I. Bonner (National Institutes of Health, Bethesda, Md.). rM2 and rM3 were cloned from a rat brain cDNA library and sequence verified. hM1, rM2, rM3, hM4, and rM4 cDNAs were used to stably transfect CHO-K1 cells purchased from the American Type Culture Collection using Lipofectamine-2000. To make stable rM2, hM2, rM3, hM4, and rM4 cell lines for use in calcium mobilization assays, these cells also were stably transfected with a chimeric G-protein (Gqi5) (provided by B. R. Conklin, University of California, San Francisco) using Lipofectamine 2000. rM1, hM1, rM3, hM3, rM5, and hM5 cells were grown in Ham's F-12 medium containing 10% heat-inactivated fetal bovine serum (FBS), 20 mM HEPES, and 50 µg/mL G418 sulfate. rM2-Gqi5, hM2-Gqi5, and hM4-Gqi5 cells were grown in the same medium also containing 500 µg/mL Hygromycin B. Stable rM4-Gqi5 cells were grown in DMEM containing 10% heat-inactivated FBS, 20 mM HEPES, 400 µg/mL G418 sulfate, and 500 µg/mL Hygromycin B.
For high throughput measurement of agonist-evoked increases in intracellular calcium, CHO-K1 cells stably expressing the target muscarinic receptor were plated in growth medium lacking G418 and hygromycin at 15,000 cells/20 μL/well in Greiner 384-well black-walled, tissue culture (TC)-treated, clear-bottom plates (VWR). Cells were incubated overnight at 37° C. and 5% CO2. The next day, cells were washed using an ELX 405 (BioTek) with four washes (80 μL) of assay buffer then aspirated to 20 μL. Next, […] of 16 μM Fluo-4/acetoxymethyl ester (Invitrogen, Carlsbad, Calif.) prepared as a 2.3 mM stock in DMSO and mixed in a 1:1 ratio with 10% (w/v) Pluronic F-127 and diluted in assay buffer was added to the wells and the cell plates were incubated for 50 min at 37° C. and 5% CO2. Dye was removed by washing with the ELX 405 (four 80 μL washes of assay buffer) then aspirated to 20 μL. Compound master plates were formatted in an 11 point CRC format (1:3 dilutions) in 100% DMSO with a starting concentration of 10 mM using the BRAVO liquid handler (Agilent). Test compound CRCs were then transferred to daughter plates (240 nL) using the Echo acoustic plate reformatter (Labcyte, Sunnyvale, Calif.) and then diluted into assay buffer (40 μL) to a 2× stock using a Thermo Fisher Combi (Thermo Fisher Scientific, Waltham, Mass.).
Calcium flux was measured using the Functional Drug Screening System (FDSS) 6000 (Hamamatsu Corporation, Tokyo, Japan) as an increase in the fluorescent static ratio. Compounds were applied to cells (20 μL, 2×) using the automated system of the FDSS 6000 at 4 s into the 300 s protocol and the data were collected at 1 Hz. At 144 s into the 300 s protocol, 10 μL of an EC20 concentration of the muscarinic receptor agonist acetylcholine was added (5×), followed by the addition of 12 μL an EC80 concentration of acetylcholine at the 230 s time point (5×). Agonist activity was analyzed as a concentration-dependent increase in calcium mobilization upon compound addition. Positive allosteric modulator activity was analyzed as a concentration-dependent increase in the EC20 acetylcholine response. Antagonist activity was analyzed as a concentration-dependent decrease in the EC80 acetylcholine response. Concentration-response curves were generated using a four-parameter logistical equation in XLfit curve fitting software (IDBS, Bridgewater, N.J.) for Excel (Microsoft, Redmond, Wash.) or Prism (GraphPad Software, Inc., San Diego, Calif.). […]

Row | Structure (SMILES) | pEC50 | EC50 [nM] | Emax (%)* [%]
1 | Cc1cc(C)c2c(n1)sc1c(NC3CCCCCC3)n[nH]c12 [Compound 133, N-cycloheptyl-6,8-dimethyl-1H-pyrazolo[3′,4′:4,5]thieno[2,3-b]pyridin-3-amine] | <5.00 | > 10000 | –
2 | CC(=O)Nc1n[nH]c2c1sc1nc(C)cc(C)c12 [Compound 126, N-(6,8-dimethyl-1H-pyrazolo[3′,4′:4,5]thieno[2,3-b]pyridin-3-yl)acetamide] | <5.00 | > 10000 | –
3 | Cc1ccc2c(n1)sc1c(NCc3ccncc3)nn(C)c12 [Compound 67, 1,6-dimethyl-N-(pyridin-4-ylmethyl)-1H-pyrazolo[3′,4′:4,5]thieno[2,3-b]pyridin-3-amine] | 5.96 | 1100 | 80
4 | Cc1ccnc(Nc2nn(C)c3c2sc2nc(C)c(Cl)c(C)c23)n1 [Compound 28, 7-chloro-1,6,8-trimethyl-N-(4-methylpyrimidin-2-yl)-1H-pyrazolo[3′,4′:4,5]thieno[2,3-b]pyridin-3-amine] | <5.00 | > 10000 | 36
5 | Cc1cc(C)c2c(n1)sc1c(NCCC(C)(C)C)n[nH]c12 [Compound 124, N-(3,3-dimethylbutyl)-6,8-dimethyl-1H-pyrazolo[3′,4′:4,5]thieno[2,3-b]pyridin-3-amine] | <5.00 | > 10000 | –
6 | COc1cccc(C(=O)Nc2n[nH]c3c2sc2nc(C)cc(C)c23)c1 [Compound 127, N-(6,8-dimethyl-1H-pyrazolo[3′,4′:4,5]thieno[2,3-b]pyridin-3-yl)-3-methoxybenzamide] | <5.00 | > 10000 | –
7 | Cc1ccc2c(n1)sc1c(NC(=O)c3ccc(Br)cc3)nn(C)c12 [Compound 158, 4-bromo-N-(1,6-dimethyl-1H-pyrazolo[3′,4′:4,5]thieno[2,3-b]pyridin-3-yl)benzamide] | <5.00 | > 10000 | –
8 | Cc1ccc2c(n1)sc1c(NCc3ccc(Cl)cc3)n[nH]c12 [Compound 49, N-(4-chlorobenzyl)-6-methyl-1H-pyrazolo[3′,4′:4,5]thieno[2,3-b]pyridin-3-amine] | 5.47 | 3400 | 37
9 | Cc1ccc2c(n1)sc1c(NC(=O)c3ccccc3)n[nH]c12 [Compound 150, N-(6-methyl-1H-pyrazolo[3′,4′:4,5]thieno[2,3-b]pyridin-3-yl)benzamide] | <5.00 | > 10000 | –
10 | Cc1cc(C)c2c(n1)sc1c(NCC(C)C)n[nH]c12 [Compound 37, N-isobutyl-6,8-dimethyl-1H-pyrazolo[3′,4′:4,5]thieno[2,3-b]pyridin-3-amine] | 5.43 | 3700 | 53
11 | COc1ccc(CNc2nn(C)c3c2sc2nc(C)c(Cl)c(C)c23)cc1 [Compound 18, 7-chloro-N-(4-methoxybenzyl)-1,6,8-trimethyl-1H-pyrazolo[3′,4′:4,5]thieno[2,3-b]pyridin-3-amine] | <5.00 | > 10000 | 51
12 | COc1ccc(CNc2n[nH]c3c2sc2nc(C)cc(C)c23)cc1 [Compound 6, N-(4-methoxybenzyl)-6,8-dimethyl-1H-pyrazolo[3′,4′:4,5]thieno[2,3-b]pyridin-3-amine] | 5.94 | 1150 | 58
13 | Cc1nc2sc3c(NCc4ccc(F)c(F)c4)nn(C)c3c2c(C)c1Cl [Compound 27, 7-chloro-N-(3,4-difluorobenzyl)-1,6,8-trimethyl-1H-pyrazolo[3′,4′:4,5]thieno[2,3-b]pyridin-3-amine] | <5.00 | > 10000 | 46

These reach a lower EC50. Values come first.

Row | pEC50 | EC50 [nM] | Emax (%)* [%] | Structure (SMILES)
14 | 6.02 | 960 | 52 | Cc1cc(C)c2c(n1)sc1c(NCC3CCCO3)nn(C)c12 (stereo not drawn) [Compound 83, 1,6,8-trimethyl-N-((tetrahydrofuran-2-yl)methyl)-1H-pyrazolo[3′,4′:4,5]thieno[2,3-b]pyridin-3-amine]
15 | 6.37 | 430 | 47 | Cc1cc(C)c2c(n1)sc1c(NCc3nccs3)nn(C)c12 [Compound 100, 1,6,8-trimethyl-N-(thiazol-2-ylmethyl)-1H-pyrazolo[3′,4′:4,5]thieno[2,3-b]pyridin-3-amine]
16 | 6.62 | 240 | 67 | Cc1cc(C)c2c(n1)sc1c(NC3CCOC3)nn(C)c12 (stereo not drawn) [Compound 103, 1,6,8-trimethyl-N-(tetrahydrofuran-3-yl)-1H-pyrazolo[3′,4′:4,5]thieno[2,3-b]pyridin-3-amine]
17 | 7.16 | 69 | 77 | Cc1cc(C)c2c(n1)sc1c(NCc3ccoc3)nn(C)c12 [Compound 81, N-(furan-3-ylmethyl)-1,6,8-trimethyl-1H-pyrazolo[3′,4′:4,5]thieno[2,3-b]pyridin-3-amine]
18 | 6.92 | 120 | 67 | Cc1cc(C)c2c(n1)sc1c(NCc3ccco3)nn(CCO)c12 [Compound 95, 2-(3-((furan-2-ylmethyl)amino)-6,8-dimethyl-1H-pyrazolo[3′,4′:4,5]thieno[2,3-b]pyridin-1-yl)ethanol]
19 | 7.07 | 86 | 81 | Cc1cc(C)c2c(n1)sc1c(NCc3cccs3)nn(C)c12 [Compound 34, 1,6,8-trimethyl-N-(thiophen-2-ylmethyl)-1H-pyrazolo[3′,4′:4,5]thieno[2,3-b]pyridin-3-amine]
20 | 7.06 | 87 | 84 | Cc1cc(C)c2c(n1)sc1c(NC3CCSC3)nn(C)c12 (stereo not drawn) [Compound 73, 1,6,8-trimethyl-N-(tetrahydrothiophen-3-yl)-1H-pyrazolo[3′,4′:4,5]thieno[2,3-b]pyridin-3-amine]
21 | 7.57 | 27 | 73 | Cc1cc(C)c2c(n1)sc1c(NC3CN(C(=O)OC(C)(C)C)C3)nn(C)c12 [Compound 106, tert-butyl 3-((1,6,8-trimethyl-1H-pyrazolo[3′,4′:4,5]thieno[2,3-b]pyridin-3-yl)amino)azetidine-1-carboxylate]
22 | 6.51 | 310 | 80 | Cc1cc(C)c2c(n1)sc1c(NCc3ccc(Cl)o3)nn(C)c12 [Compound 79, N-((5-chlorofuran-2-yl)methyl)-1,6,8-trimethyl-1H-pyrazolo[3′,4′:4,5]thieno[2,3-b]pyridin-3-amine]
